Assay results reported in ChEMBL document CHEMBL4043200, “Synthesis and biological evaluation of 8-aryl-2-morpholino-7-O-substituted benzo[e][1,3]oxazin-4-ones against DNA-PK, PI3K, PDE3A enzymes and platelet aggregation” (Bioorg Med Chem, 2017).

Legend:
[1] = biological target: DNA-dependent protein kinase catalytic subunit (Homo sapiens, UniProt P78527); experiment: Inhibition of human DNA-PK catalytic subunit at 10 uM using DNA and [EPPLSQEAFADLWKK] peptide substrate by HTRF assay
[2] = biological target: cGMP-inhibited 3',5'-cyclic phosphodiesterase 3A (Homo sapiens, UniProt Q14432); experiment: Inhibition of human PDE3A at 10 uM by HTRF assay
Chain of cGMP-inhibited 3',5'-cyclic phosphodiesterase 3A (Q14432 whole entry, canonical isoform): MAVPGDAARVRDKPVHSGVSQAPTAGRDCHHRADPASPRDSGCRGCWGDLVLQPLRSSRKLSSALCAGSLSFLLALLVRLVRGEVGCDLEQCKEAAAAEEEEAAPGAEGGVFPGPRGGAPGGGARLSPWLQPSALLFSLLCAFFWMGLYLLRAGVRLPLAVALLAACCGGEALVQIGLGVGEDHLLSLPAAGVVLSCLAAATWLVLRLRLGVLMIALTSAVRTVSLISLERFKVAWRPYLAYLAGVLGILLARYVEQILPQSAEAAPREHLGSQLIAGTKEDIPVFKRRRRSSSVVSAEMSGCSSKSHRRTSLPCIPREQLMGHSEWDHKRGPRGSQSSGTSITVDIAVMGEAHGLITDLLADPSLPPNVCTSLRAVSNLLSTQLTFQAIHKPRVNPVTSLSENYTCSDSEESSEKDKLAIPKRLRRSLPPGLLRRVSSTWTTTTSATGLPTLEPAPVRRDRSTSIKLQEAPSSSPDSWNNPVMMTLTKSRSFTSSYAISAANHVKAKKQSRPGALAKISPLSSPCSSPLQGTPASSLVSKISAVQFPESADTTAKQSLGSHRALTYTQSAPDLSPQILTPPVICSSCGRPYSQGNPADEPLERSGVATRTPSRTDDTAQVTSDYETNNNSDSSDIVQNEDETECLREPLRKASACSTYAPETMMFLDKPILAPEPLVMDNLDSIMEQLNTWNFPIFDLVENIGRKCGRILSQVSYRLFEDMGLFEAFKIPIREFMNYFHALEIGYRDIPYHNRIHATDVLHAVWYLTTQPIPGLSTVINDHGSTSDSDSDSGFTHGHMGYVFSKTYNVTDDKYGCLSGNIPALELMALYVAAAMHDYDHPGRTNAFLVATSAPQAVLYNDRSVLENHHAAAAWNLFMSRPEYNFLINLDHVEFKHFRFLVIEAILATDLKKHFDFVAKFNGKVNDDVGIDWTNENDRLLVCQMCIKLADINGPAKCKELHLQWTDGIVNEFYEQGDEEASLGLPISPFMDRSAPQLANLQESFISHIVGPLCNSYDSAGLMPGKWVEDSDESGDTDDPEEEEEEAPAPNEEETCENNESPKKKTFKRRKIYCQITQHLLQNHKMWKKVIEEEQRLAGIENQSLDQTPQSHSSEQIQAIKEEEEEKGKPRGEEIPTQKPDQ

[3] = biological target: Phosphatidylinositol 4,5-bisphosphate 3-kinase catalytic subunit alpha isoform (Homo sapiens) (UniProt P42336); experiment: Inhibition of wild type PI3K-alpha (unknown origin) assessed as decrease in ATP consumption at 10 uM using phosphotidylinositol bisphosphate and ATP measured after 60 mins by Kinase-Glo reagent based luminescence assay
Chain of Phosphatidylinositol 4,5-bisphosphate 3-kinase catalytic subunit alpha isoform (Homo sapiens) (P42336 whole entry, canonical isoform): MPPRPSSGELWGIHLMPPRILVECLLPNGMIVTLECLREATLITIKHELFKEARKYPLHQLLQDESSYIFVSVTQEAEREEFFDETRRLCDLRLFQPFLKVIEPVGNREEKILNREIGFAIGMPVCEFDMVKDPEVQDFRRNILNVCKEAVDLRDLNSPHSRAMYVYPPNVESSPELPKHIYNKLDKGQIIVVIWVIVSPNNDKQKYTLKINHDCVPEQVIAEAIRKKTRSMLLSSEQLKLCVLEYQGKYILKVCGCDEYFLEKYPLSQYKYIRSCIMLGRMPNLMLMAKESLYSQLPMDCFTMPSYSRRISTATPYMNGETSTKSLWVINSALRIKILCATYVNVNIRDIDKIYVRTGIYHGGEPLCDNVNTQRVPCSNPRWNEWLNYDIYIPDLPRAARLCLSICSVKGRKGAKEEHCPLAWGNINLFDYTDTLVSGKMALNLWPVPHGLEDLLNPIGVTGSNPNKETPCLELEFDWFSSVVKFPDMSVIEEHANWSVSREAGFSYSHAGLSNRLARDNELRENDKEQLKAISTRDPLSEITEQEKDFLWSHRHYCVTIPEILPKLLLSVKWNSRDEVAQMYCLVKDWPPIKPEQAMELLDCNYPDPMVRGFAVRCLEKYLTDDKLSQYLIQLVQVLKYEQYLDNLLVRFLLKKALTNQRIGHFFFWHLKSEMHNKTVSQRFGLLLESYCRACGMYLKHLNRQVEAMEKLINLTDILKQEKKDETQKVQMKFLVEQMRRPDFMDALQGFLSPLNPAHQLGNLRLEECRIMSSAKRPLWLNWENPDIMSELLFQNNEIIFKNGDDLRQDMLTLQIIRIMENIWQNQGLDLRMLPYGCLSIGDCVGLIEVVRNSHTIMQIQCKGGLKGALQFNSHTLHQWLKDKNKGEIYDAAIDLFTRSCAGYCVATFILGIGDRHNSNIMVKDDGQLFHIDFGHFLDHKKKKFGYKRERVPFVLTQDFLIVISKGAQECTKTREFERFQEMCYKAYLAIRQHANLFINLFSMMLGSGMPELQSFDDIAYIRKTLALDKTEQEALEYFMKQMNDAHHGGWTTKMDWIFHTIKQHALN

[4] = biological target: Phosphatidylinositol 4,5-bisphosphate 3-kinase catalytic subunit beta isoform (Homo sapiens) (UniProt P42338); experiment: Inhibition of wild type PI3K-beta (unknown origin) assessed as decrease in ATP consumption at 10 uM using phosphotidylinositol bisphosphate and ATP measured after 60 mins by Kinase-Glo reagent based luminescence assay
Chain of Phosphatidylinositol 4,5-bisphosphate 3-kinase catalytic subunit beta isoform (Homo sapiens) (P42338 whole entry, looked up, canonical isoform): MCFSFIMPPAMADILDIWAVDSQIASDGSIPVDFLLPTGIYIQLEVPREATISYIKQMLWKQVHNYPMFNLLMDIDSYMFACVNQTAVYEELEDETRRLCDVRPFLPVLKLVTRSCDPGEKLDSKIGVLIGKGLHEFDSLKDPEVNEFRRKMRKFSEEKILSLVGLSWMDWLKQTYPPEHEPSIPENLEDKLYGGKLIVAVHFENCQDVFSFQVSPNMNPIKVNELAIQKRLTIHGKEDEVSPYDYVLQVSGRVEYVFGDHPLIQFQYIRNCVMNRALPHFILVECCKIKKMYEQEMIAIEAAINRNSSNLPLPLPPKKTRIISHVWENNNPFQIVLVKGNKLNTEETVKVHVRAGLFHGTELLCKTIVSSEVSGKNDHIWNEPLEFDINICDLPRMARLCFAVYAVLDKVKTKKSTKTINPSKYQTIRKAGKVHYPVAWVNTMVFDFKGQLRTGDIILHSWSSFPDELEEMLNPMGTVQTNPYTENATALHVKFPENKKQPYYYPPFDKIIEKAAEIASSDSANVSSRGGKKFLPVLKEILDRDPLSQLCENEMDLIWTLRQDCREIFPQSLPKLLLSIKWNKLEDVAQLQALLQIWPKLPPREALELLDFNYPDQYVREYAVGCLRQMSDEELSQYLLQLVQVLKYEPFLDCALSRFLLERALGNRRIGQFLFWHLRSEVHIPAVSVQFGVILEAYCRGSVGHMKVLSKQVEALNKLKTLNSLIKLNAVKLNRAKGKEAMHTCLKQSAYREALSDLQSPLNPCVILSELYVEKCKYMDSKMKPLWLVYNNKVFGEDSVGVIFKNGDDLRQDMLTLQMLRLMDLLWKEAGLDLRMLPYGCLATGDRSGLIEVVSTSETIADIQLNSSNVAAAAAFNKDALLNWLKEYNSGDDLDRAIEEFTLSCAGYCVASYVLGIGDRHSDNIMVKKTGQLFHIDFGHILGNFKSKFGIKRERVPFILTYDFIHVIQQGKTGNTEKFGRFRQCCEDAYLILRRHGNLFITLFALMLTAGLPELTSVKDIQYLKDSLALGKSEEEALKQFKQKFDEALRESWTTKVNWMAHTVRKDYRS

[5] = biological target: Phosphatidylinositol 4,5-bisphosphate 3-kinase catalytic subunit gamma isoform (Homo sapiens) (UniProt P48736); experiment: Inhibition of wild type PI3K-gamma (unknown origin) assessed as decrease in ATP consumption at 10 uM using phosphotidylinositol bisphosphate and ATP measured after 60 mins by Kinase-Glo reagent based luminescence assay
Chain of Phosphatidylinositol 4,5-bisphosphate 3-kinase catalytic subunit gamma isoform (Homo sapiens) (P48736 whole entry, looked up, canonical isoform): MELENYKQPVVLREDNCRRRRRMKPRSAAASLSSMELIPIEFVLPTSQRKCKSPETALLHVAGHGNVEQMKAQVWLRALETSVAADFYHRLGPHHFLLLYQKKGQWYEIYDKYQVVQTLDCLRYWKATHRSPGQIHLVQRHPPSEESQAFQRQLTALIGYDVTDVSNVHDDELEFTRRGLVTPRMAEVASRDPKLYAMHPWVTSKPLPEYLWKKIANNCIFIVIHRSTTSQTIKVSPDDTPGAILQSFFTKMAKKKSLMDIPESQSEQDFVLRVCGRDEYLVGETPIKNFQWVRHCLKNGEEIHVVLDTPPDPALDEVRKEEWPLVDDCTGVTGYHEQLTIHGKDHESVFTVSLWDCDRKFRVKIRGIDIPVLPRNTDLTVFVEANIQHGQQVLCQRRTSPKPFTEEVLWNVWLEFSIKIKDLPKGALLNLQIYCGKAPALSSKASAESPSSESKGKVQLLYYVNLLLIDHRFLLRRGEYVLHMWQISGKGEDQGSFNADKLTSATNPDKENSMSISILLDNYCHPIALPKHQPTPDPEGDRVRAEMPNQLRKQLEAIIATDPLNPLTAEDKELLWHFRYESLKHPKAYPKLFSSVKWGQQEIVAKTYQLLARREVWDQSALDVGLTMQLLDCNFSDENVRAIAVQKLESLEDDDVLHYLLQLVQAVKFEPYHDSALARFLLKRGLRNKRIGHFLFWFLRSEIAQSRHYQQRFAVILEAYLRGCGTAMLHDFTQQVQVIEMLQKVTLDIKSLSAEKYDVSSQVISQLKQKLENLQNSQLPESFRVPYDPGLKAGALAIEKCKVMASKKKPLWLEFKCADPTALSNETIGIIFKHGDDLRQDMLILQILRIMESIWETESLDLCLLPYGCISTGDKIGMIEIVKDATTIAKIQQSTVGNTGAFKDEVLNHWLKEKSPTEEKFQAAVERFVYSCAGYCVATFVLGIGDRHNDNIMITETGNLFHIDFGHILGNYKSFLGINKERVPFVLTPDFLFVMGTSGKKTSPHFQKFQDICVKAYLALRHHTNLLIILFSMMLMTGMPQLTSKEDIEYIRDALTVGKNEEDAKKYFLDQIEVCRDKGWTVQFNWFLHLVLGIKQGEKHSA

[6] = biological target: T1, Phosphatidylinositol 4,5-bisphosphate 3-kinase catalytic subunit delta isoform (Homo sapiens) (UniProt O00329); experiment: Inhibition of wild type PI3K-delta (unknown origin) assessed as decrease in ATP consumption at 10 uM using phosphotidylinositol bisphosphate and ATP measured after 60 mins by Kinase-Glo reagent based luminescence assay
T1 sequence (whole entry): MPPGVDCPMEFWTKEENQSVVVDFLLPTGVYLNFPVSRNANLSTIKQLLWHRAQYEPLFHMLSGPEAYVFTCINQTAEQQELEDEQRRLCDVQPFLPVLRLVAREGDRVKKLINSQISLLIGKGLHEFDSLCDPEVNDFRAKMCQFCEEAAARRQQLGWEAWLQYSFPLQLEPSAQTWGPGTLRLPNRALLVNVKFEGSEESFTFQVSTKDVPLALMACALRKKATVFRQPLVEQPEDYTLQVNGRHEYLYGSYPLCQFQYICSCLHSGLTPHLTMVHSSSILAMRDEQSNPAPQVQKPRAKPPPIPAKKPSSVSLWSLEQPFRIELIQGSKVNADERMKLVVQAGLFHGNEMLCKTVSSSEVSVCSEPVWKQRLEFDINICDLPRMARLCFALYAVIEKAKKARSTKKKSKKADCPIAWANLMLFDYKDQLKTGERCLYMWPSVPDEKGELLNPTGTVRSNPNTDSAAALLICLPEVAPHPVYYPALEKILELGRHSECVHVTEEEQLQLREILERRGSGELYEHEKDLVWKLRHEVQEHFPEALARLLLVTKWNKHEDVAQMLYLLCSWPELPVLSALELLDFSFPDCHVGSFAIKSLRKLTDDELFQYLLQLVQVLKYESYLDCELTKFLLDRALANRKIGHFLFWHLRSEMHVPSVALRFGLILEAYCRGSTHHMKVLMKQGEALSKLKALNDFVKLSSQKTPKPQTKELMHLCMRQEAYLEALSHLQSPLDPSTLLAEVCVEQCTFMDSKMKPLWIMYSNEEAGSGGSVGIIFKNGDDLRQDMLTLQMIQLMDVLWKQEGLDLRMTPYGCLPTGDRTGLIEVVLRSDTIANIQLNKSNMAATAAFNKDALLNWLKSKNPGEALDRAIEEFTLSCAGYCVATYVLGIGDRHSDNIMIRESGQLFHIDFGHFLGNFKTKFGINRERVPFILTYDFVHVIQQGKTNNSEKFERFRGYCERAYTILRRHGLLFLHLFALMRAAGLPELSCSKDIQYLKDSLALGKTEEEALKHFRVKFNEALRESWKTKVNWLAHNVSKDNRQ

[7] = biological target: T2, Phosphatidylinositol 4,5-bisphosphate 3-kinase catalytic subunit delta isoform (Homo sapiens, UniProt O00329); experiment: Inhibition of wild type PI3K-delta (unknown origin) assessed as decrease in ATP consumption using phosphotidylinositol bisphosphate and ATP measured after 60 mins by Kinase-Glo reagent based luminescence assay
T2 sequence (O00329 whole entry): T1 sequence (whole entry)

SMILES: O=c1nc(N2CCOCC2)oc2c(-c3ccc(Cl)cc3)c(OCc3ccccn3)ccc12
- inhibition [1]: 27%
- inhibition [2]: 63.3%
- inhibition [3]: 28.6%
- inhibition [4]: 48.8%
- inhibition [5]: 23.5%
- inhibition [6]: 62.1%
- IC50 [7]: 14.7 µM

SMILES: O=c1nc(N2CCOCC2)oc2c(-c3ccsc3)c(OCc3cccnc3)ccc12
- inhibition [1]: 44%
- inhibition [2]: 61.9%
- inhibition [3]: -3.3%
- inhibition [4]: 0.3%
- inhibition [5]: 3.8%
- inhibition [6]: 16.6%

SMILES: COc1ccc(-c2c(OCc3ccccc3)ccc3c(=O)nc(N4CCOCC4)oc23)cc1
- inhibition [1]: 40%
- inhibition [2]: 2.8%
- inhibition [3]: 0.6%
- inhibition [4]: 19.8%
- inhibition [5]: -0.5%
- inhibition [6]: 65.7%

SMILES: Nc1cccc(-c2c(OCc3cccnc3)ccc3c(=O)nc(N4CCOCC4)oc23)c1
- inhibition [1]: 9.8%
- inhibition [3]: 18.4%
- inhibition [4]: 28.2%
- inhibition [5]: -6.9%
- inhibition [6]: 41.9%

SMILES: O=c1nc(N2CCOCC2)oc2c(-c3ccccc3)c(OCCBr)ccc12
- inhibition [1]: 31.1%
- inhibition [2]: 24%
- inhibition [3]: 40.7%
- inhibition [4]: 33.8%
- inhibition [5]: -6.4%
- inhibition [6]: 75.9%

SMILES: O=c1nc(N2CCOCC2)oc2c(-c3ccc(Cl)cc3)c(OCc3ccccc3)ccc12
- inhibition [1]: 25.7%
- inhibition [2]: 31.4%
- inhibition [3]: 0.2%
- inhibition [4]: 11%
- inhibition [5]: 9.8%
- inhibition [6]: 27.4%

SMILES: COc1ccc(-c2c(OCc3ccncc3)ccc3c(=O)nc(N4CCOCC4)oc23)cc1
- inhibition [1]: 33.6%
- inhibition [2]: 33.5%
- inhibition [3]: 36.2%
- inhibition [4]: 53.8%
- inhibition [6]: 96.3%
- IC50 [7]: 2.9 µM

SMILES: O=c1nc(N2CCOCC2)oc2c(-c3cccc4c3oc3ccccc34)c(OCc3ccccc3)ccc12
- inhibition [1]: 41.5%
- inhibition [2]: 62.9%
- inhibition [5]: -4.1%
- inhibition [6]: -2.9%

SMILES: O=c1nc(N2CCOCC2)oc2c(-c3ccsc3)c(OCc3ccccc3)ccc12
- inhibition [1]: 46.6%
- inhibition [2]: 38.8%
- inhibition [3]: 4.8%
- inhibition [4]: 20.6%
- inhibition [6]: 39.5%

SMILES: O=c1nc(N2CCOCC2)oc2c(-c3cccc4c3Sc3ccccc3S4)c(OCc3ccccc3)ccc12
- inhibition [1]: -1.7%
- inhibition [2]: 27.3%
- inhibition [4]: 0.6%
- inhibition [6]: -1%

SMILES: O=c1nc(N2CCOCC2)oc2c(-c3ccc(Cl)cc3)c(OCc3ccncc3)ccc12
- inhibition [1]: 21.5%
- inhibition [2]: 56.1%
- inhibition [3]: 28.7%
- inhibition [4]: 56.6%
- inhibition [5]: 26.5%
- inhibition [6]: 63.3%
- IC50 [7]: 9.2 µM

SMILES: Nc1cccc(-c2c(OCc3ccccc3)ccc3c(=O)nc(N4CCOCC4)oc23)c1
- inhibition [1]: 9.1%
- inhibition [2]: 5.1%
- inhibition [3]: 31.6%
- inhibition [4]: 63.1%
- inhibition [5]: 19.8%
- inhibition [6]: 63.4%

SMILES: COc1ccc(-c2c(OCCN3CCN(C)CC3)ccc3c(=O)nc(N4CCOCC4)oc23)cc1
- inhibition [1]: 18.1%
- inhibition [2]: 11.5%
- inhibition [3]: 40.3%
- inhibition [4]: 44.8%
- inhibition [5]: 6.23%
- inhibition [6]: 73.9%
- IC50 [7]: 5.68 µM

SMILES: Nc1cccc(-c2c(OCc3ccccn3)ccc3c(=O)nc(N4CCOCC4)oc23)c1
- inhibition [1]: 7.3%
- inhibition [2]: 20%
- inhibition [3]: 16.2%
- inhibition [4]: 65.5%
- inhibition [5]: 6.4%
- inhibition [6]: 47.6%

SMILES: Nc1cccc(-c2c(OCc3ccncc3)ccc3c(=O)nc(N4CCOCC4)oc23)c1
- inhibition [1]: 10.1%
- inhibition [2]: 43.6%
- inhibition [4]: -5.5%
- inhibition [5]: -5.5%
- inhibition [6]: 9.7%

SMILES: O=c1nc(N2CCOCC2)oc2c(-c3cc4ccccc4s3)c(OCc3cccnc3)ccc12
- inhibition [1]: 8.9%
- inhibition [2]: 56.4%
- inhibition [3]: 2.6%
- inhibition [4]: 18.1%
- inhibition [5]: -8.1%
- inhibition [6]: 75.6%
- IC50 [7]: 2.7 µM

SMILES: O=c1nc(N2CCOCC2)oc2c(-c3cc4ccccc4s3)c(OCc3ccccc3)ccc12
- inhibition [2]: 58.1%
- inhibition [3]: -7.3%
- inhibition [4]: 0.4%
- inhibition [5]: -7.1%
- inhibition [6]: 1.1%

SMILES: O=c1nc(N2CCOCC2)oc2c(-c3ccccc3)c(OCc3ccncc3)ccc12
- inhibition [1]: 15.1%
- inhibition [2]: 60.1%
- inhibition [3]: 46.1%
- inhibition [4]: 68.1%
- inhibition [5]: 8.2%
- inhibition [6]: 80.8%
- IC50 [7]: 5.8 µM

SMILES: O=c1nc(N2CCOCC2)oc2c(-c3ccc(Cl)cc3)c(OCc3cccnc3)ccc12
- inhibition [1]: 32.7%
- inhibition [2]: 43.6%
- inhibition [3]: 34.6%
- inhibition [4]: 53.2%
- inhibition [5]: 20%
- inhibition [6]: 64.9%
- IC50 [7]: 10.1 µM

SMILES: O=c1nc(N2CCOCC2)oc2c(-c3cccc4ccccc34)c(OCc3ccccc3)ccc12
- inhibition [1]: 4.07%
- inhibition [2]: 51.3%
- inhibition [4]: 4.67%
- inhibition [6]: 9.5%

SMILES: O=c1nc(N2CCOCC2)oc2c(-c3ccccc3)c(OCc3ccccc3)ccc12
- inhibition [1]: 13.6%
- inhibition [2]: 24%
- inhibition [3]: 21.3%
- inhibition [4]: 29.8%
- inhibition [5]: 5.4%
- inhibition [6]: 58.7%

SMILES: COc1ccc(-c2c(OCc3cccnc3)ccc3c(=O)nc(N4CCOCC4)oc23)cc1
- inhibition [1]: 33.5%
- inhibition [2]: 29.8%
- inhibition [3]: 30%
- inhibition [4]: 39.3%
- inhibition [5]: -2.2%
- inhibition [6]: 87.8%
- IC50 [7]: 2.8 µM

SMILES: O=c1nc(N2CCOCC2)oc2c(-c3cccs3)c(OCc3ccccc3)ccc12
- inhibition [1]: 46.1%
- inhibition [2]: 59.9%
- inhibition [3]: -9.9%
- inhibition [5]: -3.5%
- inhibition [6]: 9.2%

SMILES: O=c1nc(N2CCOCC2)oc2c(-c3cccs3)c(OCc3ccncc3)ccc12
- inhibition [1]: 39.2%
- inhibition [2]: 55.3%
- inhibition [3]: -2.9%
- inhibition [4]: 5.4%
- inhibition [5]: -1.5%
- inhibition [6]: 24%

SMILES: O=c1nc(N2CCOCC2)oc2c(-c3ccsc3)c(OCc3ccncc3)ccc12
- inhibition [1]: 32.8%
- inhibition [2]: 55.3%
- inhibition [3]: 21.4%
- inhibition [4]: 53.6%
- inhibition [5]: 7.7%
- inhibition [6]: 72.2%

SMILES: O=c1nc(N2CCOCC2)oc2c(-c3ccc(CO)cc3)c(OCc3ccccc3)ccc12
- inhibition [1]: 36%
- inhibition [2]: 18.9%
- inhibition [3]: 39.1%
- inhibition [4]: 54.2%
- inhibition [6]: 84.7%
- IC50 [7]: 3.07 µM

SMILES: CN1CCN(CCOc2ccc3c(=O)nc(N4CCOCC4)oc3c2-c2ccc(Cl)cc2)CC1
- inhibition [1]: 11.6%
- inhibition [2]: 21.8%
- inhibition [3]: 12.7%
- inhibition [4]: 20.3%
- inhibition [5]: 1.4%
- inhibition [6]: 49.4%

SMILES: O=c1nc(N2CCOCC2)oc2c(-c3cc4ccccc4s3)c(OCc3ccncc3)ccc12
- inhibition [1]: 8.7%
- inhibition [2]: 51.6%
- inhibition [5]: 0.2%
- inhibition [6]: 27.2%

SMILES: O=c1nc(N2CCOCC2)oc2c(-c3cccc4c3sc3ccccc34)c(OCc3ccccc3)ccc12
- inhibition [1]: 64.4%
- inhibition [2]: 31.2%
- inhibition [4]: 15.1%
- inhibition [6]: 6.3%

SMILES: O=c1nc(N2CCOCC2)oc2c(-c3cccs3)c(OCc3cccnc3)ccc12
- inhibition [1]: 38.1%
- inhibition [2]: 61.8%
- inhibition [3]: 3.3%
- inhibition [4]: 5.3%
- inhibition [5]: 1.7%
- inhibition [6]: 20.7%

SMILES: O=c1nc(N2CCOCC2)oc2c(-c3cccnc3)c(OCc3ccccc3)ccc12
- inhibition [1]: 17.2%
- inhibition [2]: 46.9%
- inhibition [3]: -1.7%
- inhibition [4]: 21%
- inhibition [5]: -2.3%
- inhibition [6]: 34.5%

SMILES: O=c1nc(N2CCOCC2)oc2c(-c3ccc(Cl)cc3)c(OCCBr)ccc12
- inhibition [1]: 31%
- inhibition [2]: 11.3%
- inhibition [3]: -6.1%
- inhibition [4]: 7.6%
- inhibition [6]: 53.6%
